Results from the supplement of paper PMC13380429.

Legend:
[1] = test system: Caco-2; assay: cell viability relative to DMSO; higher = less toxic; details: 72 h
[2] = test system: Calu-3; assay: as above; details: 72 h
[3] = test system: HepG2; assay: as above; details: 72 h
[4] = test system: Vero E6; assay: as above; details: 72 h
[5] = test system: U2OS; assay: as above; details: 72 h
[6] = test system: A549-ACE2 infected with SARS-CoV-2; assay: cell count relative to DMSO; higher = less toxic; details: 24 h
[7] = test system: Calu-3; assay: relative viability EC50 (midpoint between 100% and the lowest measured viability); higher = less toxic; details: 72 h
[8] = test system: Vero E6; assay: as above; details: 72 h
[9] = test system: U2OS; assay: as above; details: 72 h
[10] = test system: A549-ACE2 infected with SARS-CoV-2; assay: morphology score (similarity to uninfected cells); higher = more like uninfected cells; details: 24 h
[11] = test system: A549-ACE2; assay: phospholipidosis EC50; higher = less potent phospholipidosis inducer
[12] = test system: A549-ACE2; assay: drug-induced phospholipidosis relative to tamoxifen; higher = more phospholipidosis
[13] = test system: A549-ACE2 infected with SARS-CoV-2; assay: SARS-CoV-2 infection rate relative to DMSO; higher = more infection; details: 24 h
[14] = test system: Caco-2; assay: drug sensitivity score (DSS) for viability; higher = more toxic; extreme values may be limits of the assay; details: 72 h
[15] = test system: Calu-3; assay: as above; details: 72 h
[16] = test system: HepG2; assay: as above; details: 72 h
[17] = test system: Vero E6; assay: as above; details: 72 h
[18] = test system: U2OS; assay: as above; details: 72 h
[19] = test system: HepG2; assay: relative viability EC50 (midpoint between 100% and the lowest measured viability); higher = less toxic; details: 72 h
[20] = test system: Caco-2; assay: as above; details: 72 h

CCCCCCCCNC(=O)/C(C#N)=C/c1cn(CCCN(C)C)c2ccccc12 [dynole-34-2]
Details | SARS-CoV-2 infection rate [%] | cell count [%] | cell viability [%] | morphology score | phospholipidosis EC50 [µM]
[1], 1 nM | – | – | 97.3 | – | –
[1], 10 nM | – | – | 100 | – | –
[1], 100 nM | – | – | 103 | – | –
[1], 1000 nM | – | – | 95.5 | – | –
[1], 10000 nM | – | – | 63.9 | – | –
[2], 1 nM | – | – | 98.3 | – | –
[2], 10 nM | – | – | 96.7 | – | –
[2], 100 nM | – | – | 105 | – | –
[2], 1000 nM | – | – | 93.1 | – | –
[2], 10000 nM | – | – | -0.1 | – | –
[3], 1 nM | – | – | 96.5 | – | –
[3], 10 nM | – | – | 93.4 | – | –
[3], 100 nM | – | – | 97.9 | – | –
[3], 1000 nM | – | – | 95.8 | – | –
[3], 10000 nM | – | – | 62 | – | –
[4], 1 nM | – | – | 104 | – | –
[4], 10 nM | – | – | 102 | – | –
[4], 100 nM | – | – | 102 | – | –
[4], 1000 nM | – | – | 98.6 | – | –
[4], 10000 nM | – | – | 91.2 | – | –
[5], 1 nM | – | – | 104 | – | –
[5], 10 nM | – | – | 104 | – | –
[5], 100 nM | – | – | 99 | – | –
[5], 1000 nM | – | – | 102 | – | –
[5], 10000 nM | – | – | 5.2 | – | –
[6], 0.3 µM | – | 97 | – | – | –
[10], 0.3 µM | – | – | – | -0.05 | –
[11], 24 h | – | – | – | – | 0.825
[11], 48 h | – | – | – | – | 3.88
[11], 72 h | – | – | – | – | 6.62
[13], 0.3 µM | 105 | – | – | – | –

Details | drug sensitivity score | relative viability EC50 [µM]
[7] | – | 2.61
[8] | – | > 10
[9] | – | 3.29
[14] | 2.5 | –
[15] | 6.6 | –
[16] | 2.6 | –
[17] | 0 | –
[18] | 5.1 | –

drug-induced phospholipidosis [%], [12]
Details | 0.3 µM | 0.833333 µM | 3.33333 µM | 6.66667 µM | 10 µM
24 h | 1.06 | 56.4 | 87.1 | 96.8 | 112
48 h | 1.92 | 50.3 | 46.7 | 92 | 119
72 h | 2.02 | 41.5 | 27.6 | 81.2 | 120

O=[N+]([O-])/C=C/c1ccc2c(c1)OCO2 [3,4-methylenedioxy-beta-nitrostyrene]
Details | SARS-CoV-2 infection rate, [13] [%] | cell count, [6] [%] | cell viability, [1] [%] | cell viability, [2] [%] | cell viability, [3] [%] | cell viability, [4] [%] | cell viability, [5] [%] | morphology score, [10]
1 nM | – | – | 94.9 | 101 | 115 | 103 | 99.2 | –
10 nM | – | – | 107 | 105 | 97.9 | 101 | 97.5 | –
100 nM | – | – | 93.8 | 101 | 101 | 99.9 | 97.1 | –
0.3 µM | 95 | 106 | – | – | – | – | – | 0.14
1000 nM | – | – | 104 | 100 | 95.9 | 96.9 | 100 | –
3 µM | 107 | 97 | – | – | – | – | – | 0.21
10000 nM | – | – | 72.3 | 95.5 | 91.3 | 84.3 | 43.7 | –
10 µM | 39 | 49 | – | – | – | – | – | 0.48
30 µM | 36 | 16 | – | – | – | – | – | 0.16

Details | drug sensitivity score | relative viability EC50 [µM]
[7] | – | > 10
[8] | – | > 10
[9] | – | 3.2
[14] | 0.9 | –
[15] | 0 | –
[16] | 0 | –
[17] | 0.6 | –
[18] | 3 | –
[19] | – | > 10

drug-induced phospholipidosis [%], [12]
Details | 0.3 µM | 0.833333 µM | 3.33333 µM | 6.66667 µM | 30 µM
24 h | 1.47 | -0.82 | 0.27 | 3.08 | -3.87
48 h | -0.23 | -2.22 | -2.44 | -0.19 | –
72 h | -0.171 | -1.69 | -1.41 | -0.796 | –

O=c1oc(-c2ccc(C(F)(F)F)cc2)nn1Cc1cc(Cl)ccc1O
Details | SARS-CoV-2 infection rate [%] | cell count [%] | cell viability [%] | morphology score
[1], 1 nM | – | – | 109 | –
[1], 10 nM | – | – | 94.7 | –
[1], 100 nM | – | – | 101 | –
[1], 1000 nM | – | – | 99.2 | –
[1], 10000 nM | – | – | 92.6 | –
[3], 1 nM | – | – | 105 | –
[3], 10 nM | – | – | 107 | –
[3], 100 nM | – | – | 99.7 | –
[3], 1000 nM | – | – | 99.2 | –
[3], 10000 nM | – | – | 97.3 | –
[6], 0.3 µM | – | 101 | – | –
[6], 3 µM | – | 102 | – | –
[6], 10 µM | – | 80 | – | –
[6], 30 µM | – | 65 | – | –
[10], 0.3 µM | – | – | – | 0.38
[10], 3 µM | – | – | – | -0.01
[10], 10 µM | – | – | – | 0.05
[10], 30 µM | – | – | – | 0.43
[13], 0.3 µM | 84 | – | – | –
[13], 3 µM | 102 | – | – | –
[13], 10 µM | 99 | – | – | –
[13], 30 µM | 68 | – | – | –

Details | drug sensitivity score | relative viability EC50 [µM]
[14] | 0 | –
[16] | 0 | –
[19] | – | > 10
[20] | – | > 10

drug-induced phospholipidosis [%], [12]
Details | 0.3 µM | 0.833333 µM | 3.33333 µM | 6.66667 µM | 10 µM | 30 µM
24 h | -1 | -1.2 | -2.36 | -1.21 | 0.96 | 6.42
48 h | 3.5 | -0.73 | 0.6 | 1.96 | 2.52 | 8.32
72 h | 4.07 | 0.196 | 1.24 | 1.18 | 2.49 | 10.1
